pIC50: −log10 of the molar value. Like-named read-outs stand apart in the source and are kept apart here.
Key:
EGFR L858R = molecular target: T1, EGFR L858R (Homo sapiens, UniProt P00533, L858R); assay: Inhibition of EGFR L858R biochemical enzymatic activity (HTRF); conditions: 1 mM ATP, 1 h at room temperature, read-out: IC50 @L858R
T1 construct: purchased Carna Bio
Method in brief: (§1)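 Time-resolved FRET assay of EGFR substrate phosphorylation. Conditions: 1 μM TK substrate-biotin, 1 mM ATP, Mg/Mn buffer, 1 h at RT. IC50 from 4-parameter curve fit.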

[1] = molecular target: T2, EGFR[T790M/C797S/d746-750] (Homo sapiens, UniProt P00533, C797S/DEL746-750/T790M); assay: Inhibition of EGFR[T790M/C797S/d746-750] biochemical enzymatic activity (HTRF); conditions: EGFR[T790M/C797S/d746-750], 1 mM ATP, 1 h at room temperature, read-out: IC50 @T790M - C797S - Del19
T2 construct: purchased Carna Bio
Method in brief: as §1

EGFR[T790M/C797S/L858R] = molecular target: T3, EGFR[T790M/C797S/L858R] (Homo sapiens, UniProt P00533, C797S/L858R/T790M); assay: Inhibition of EGFR[T790M/C797S/L858R] biochemical enzymatic activity (HTRF); conditions: EGFR[T790M/C797S/L858R], 1 mM ATP, 1 h at room temperature, read-out: IC50 @T790M- C797S - L858R
T3 construct: purchased Carna Bio
Method in brief: as §1

A-431 = assay: Cell proliferation assay, A-431 cells (GI50, Table 6); format: cell-based
EGFR Exon19Del/T790M = molecular target: T4, EGFR Exon19Del/T790M (Homo sapiens, UniProt P00533, DEL746-750/T790M); assay: Inhibition of EGFR Exon19Del/T790M biochemical enzymatic activity (HTRF); conditions: EGFR Exon19Del/T790M, 1 mM ATP, 1 h at room temperature, read-out: IC50 @Del19-T790M
T4 construct: purchased Carna Bio
Method in brief: as §1

[2] = system: Ba/F3 cells expressing EGFR mutations; assay: Cell proliferation assay, Ba/F3 cells expressing EGFR mutations (CellTiter-Glo, 72 hours); format: cell-based
Method in brief: (§2)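 Growth over 72 h was quantified by CellTiter-Glo luminescence, normalised as (G3 − G0)/(DMSO G3 − G0), for PC-9 cells seeded at 500/well and EGFR-mutant Ba/F3 cells at 5000/well in RPMI1640. Compound concentration series added after overnight incubation; GI50 obtained from best-fit curves.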

EGFR L858R/T790M = molecular target: T5, EGFR L858R/T790M (Homo sapiens, UniProt P00533, L858R/T790M); assay: Inhibition of EGFR L858R/T790M biochemical enzymatic activity (HTRF); conditions: EGFR L858R/T790M, 1 mM ATP, 1 h at room temperature, read-out: IC50 @L858R-T790M
T5 construct: purchased Carna Bio
Method in brief: as §1

EGFR wild type = molecular target: T6, EGFR wild type (Homo sapiens, UniProt P00533); assay: Inhibition of EGFR wild type biochemical enzymatic activity (HTRF); conditions: EGFR wild type, 1 mM ATP, 1 h at room temperature, read-out: IC50 @WT
T6 construct: purchased Carna Bio
Method in brief: as §1

PC-9 = assay: Cell proliferation assay, PC-9 cells (CellTiter-Glo, 72 hours); format: cell-based; conditions: PC9 cells, read-out: GI50 PC9
Method in brief: as §2

EGFR (C797S L858R) = molecular target: T7, EGFR (C797S L858R) (Homo sapiens, UniProt P00533, C797S/L858R); assay: Inhibition of EGFR (C797S L858R) biochemical enzymatic activity (HTRF); conditions: EGFR (C797S L858R), 1 mM ATP, 1 h at room temperature, read-out: IC50 @L858-C797S
T7 construct: purchased signalchem
Method in brief: as §1

EGFR (d746-750 C797S) = molecular target: T8, EGFR (d746-750 C797S) (Homo sapiens, UniProt P00533, C797S/DEL746-750); assay: Inhibition of EGFR (d746-750 C797S) biochemical enzymatic activity (HTRF); conditions: EGFR (d746-750 C797S), 1 mM ATP, 1 h at room temperature, read-out: IC50 @Del19-C797S
T8 construct: purchased signalchem
Method in brief: as §1

EGFR Exon19Del = molecular target: T9, EGFR Exon19Del (Homo sapiens, UniProt P00533, DEL746-750); assay: Inhibition of EGFR Exon19Del biochemical enzymatic activity (HTRF); conditions: EGFR Exon19Del, 1 mM ATP, 1 h at room temperature, read-out: IC50 @Del19
T9 construct: purchased Carna Bio
Method in brief: as §1

[3] = BaF3 cells, EGFR DEL19 - C797S, read-out: GI50 DEL19 - C797S/BaF3
[4] = BaF3 cells, EGFR DEL19 - T790-C797S, read-out: GI50 DEL19 - T790-C797S/BaF3
[5] = BaF3 cells, EGFR L858R - C797S, read-out: GI50 L858R - C797S/BaF3
[6] = BaF3 cells, EGFR L858R - T790-C797S, read-out: GI50 L858R - T790-C797S/BaF3
[7] = BaF3 cells, EGFR L858R - T790M, read-out: GI50 L858R - T790M/BaF3
[8] = BaF3 cells, EGFR L858R, read-out: GI50 L858R/BaF3
[9] = EGFR DEL19 - T790M, read-out: GI50 DEL19 - T790M
[10] = Homo sapiens, A-431, A-431 cells

T4 sequence (P00533 with tags, fused parts or gaps DEL746-750/T790M limits assumed): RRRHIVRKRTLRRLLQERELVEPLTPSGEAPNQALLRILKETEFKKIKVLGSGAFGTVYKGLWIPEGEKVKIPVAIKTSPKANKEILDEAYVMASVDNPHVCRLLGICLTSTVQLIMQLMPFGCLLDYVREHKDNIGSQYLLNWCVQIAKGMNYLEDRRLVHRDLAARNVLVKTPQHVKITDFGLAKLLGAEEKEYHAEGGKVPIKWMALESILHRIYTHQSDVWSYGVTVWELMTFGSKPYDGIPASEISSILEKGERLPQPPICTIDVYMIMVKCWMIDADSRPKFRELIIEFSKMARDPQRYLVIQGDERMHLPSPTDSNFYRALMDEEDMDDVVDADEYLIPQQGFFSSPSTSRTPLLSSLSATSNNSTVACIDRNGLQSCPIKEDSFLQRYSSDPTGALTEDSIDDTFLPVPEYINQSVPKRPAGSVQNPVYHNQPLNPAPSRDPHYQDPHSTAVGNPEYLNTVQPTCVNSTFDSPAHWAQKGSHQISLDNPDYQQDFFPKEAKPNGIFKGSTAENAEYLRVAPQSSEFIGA
T2 sequence (P00533 with tags, fused parts or gaps DEL746-750/T790M/C797S limits assumed): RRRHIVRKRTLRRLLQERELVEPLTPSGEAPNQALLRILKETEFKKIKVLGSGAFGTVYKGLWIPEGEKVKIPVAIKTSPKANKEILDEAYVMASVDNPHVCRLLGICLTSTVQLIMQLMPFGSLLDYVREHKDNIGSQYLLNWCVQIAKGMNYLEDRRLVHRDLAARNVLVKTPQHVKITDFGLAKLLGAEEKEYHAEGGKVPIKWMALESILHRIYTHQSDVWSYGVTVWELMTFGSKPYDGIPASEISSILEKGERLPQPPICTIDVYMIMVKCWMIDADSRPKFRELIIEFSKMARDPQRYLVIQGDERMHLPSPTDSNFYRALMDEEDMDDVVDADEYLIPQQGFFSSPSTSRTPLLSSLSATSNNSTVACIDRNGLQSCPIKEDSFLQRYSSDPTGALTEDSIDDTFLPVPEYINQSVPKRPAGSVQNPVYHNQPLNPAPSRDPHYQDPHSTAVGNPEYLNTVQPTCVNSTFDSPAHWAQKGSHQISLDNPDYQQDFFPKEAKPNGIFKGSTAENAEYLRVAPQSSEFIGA
T6 sequence (P00533 25-1210): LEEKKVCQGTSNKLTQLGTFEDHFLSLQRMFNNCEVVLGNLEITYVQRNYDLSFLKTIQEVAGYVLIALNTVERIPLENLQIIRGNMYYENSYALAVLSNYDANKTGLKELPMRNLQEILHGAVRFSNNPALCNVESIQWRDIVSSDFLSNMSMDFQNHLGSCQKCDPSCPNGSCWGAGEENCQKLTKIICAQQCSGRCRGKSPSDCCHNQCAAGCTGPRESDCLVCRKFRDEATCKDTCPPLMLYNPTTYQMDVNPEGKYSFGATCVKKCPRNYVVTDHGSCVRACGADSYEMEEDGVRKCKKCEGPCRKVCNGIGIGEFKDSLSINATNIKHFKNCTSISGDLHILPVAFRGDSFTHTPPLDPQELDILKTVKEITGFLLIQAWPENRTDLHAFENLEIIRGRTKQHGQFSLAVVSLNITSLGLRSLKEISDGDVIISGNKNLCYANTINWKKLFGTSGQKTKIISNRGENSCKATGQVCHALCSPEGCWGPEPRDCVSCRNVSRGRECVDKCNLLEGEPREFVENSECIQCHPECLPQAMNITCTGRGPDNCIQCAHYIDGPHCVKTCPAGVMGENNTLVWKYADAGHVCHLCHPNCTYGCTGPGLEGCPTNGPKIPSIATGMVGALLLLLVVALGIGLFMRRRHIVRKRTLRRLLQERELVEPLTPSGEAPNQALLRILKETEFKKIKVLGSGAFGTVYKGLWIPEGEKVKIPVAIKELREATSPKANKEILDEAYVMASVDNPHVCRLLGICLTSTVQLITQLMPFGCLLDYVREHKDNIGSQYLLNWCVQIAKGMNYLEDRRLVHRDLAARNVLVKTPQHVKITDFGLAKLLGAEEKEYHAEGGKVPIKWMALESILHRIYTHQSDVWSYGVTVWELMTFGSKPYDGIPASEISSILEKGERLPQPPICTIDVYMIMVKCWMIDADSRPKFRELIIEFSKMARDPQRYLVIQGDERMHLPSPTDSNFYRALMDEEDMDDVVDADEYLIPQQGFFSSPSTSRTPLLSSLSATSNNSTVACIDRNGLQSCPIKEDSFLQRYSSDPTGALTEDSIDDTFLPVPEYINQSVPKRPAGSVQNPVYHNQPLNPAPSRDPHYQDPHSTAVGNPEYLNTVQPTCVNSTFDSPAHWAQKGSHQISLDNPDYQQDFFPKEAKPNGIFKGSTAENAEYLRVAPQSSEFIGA
T1 sequence (P00533 25-1210 L858R): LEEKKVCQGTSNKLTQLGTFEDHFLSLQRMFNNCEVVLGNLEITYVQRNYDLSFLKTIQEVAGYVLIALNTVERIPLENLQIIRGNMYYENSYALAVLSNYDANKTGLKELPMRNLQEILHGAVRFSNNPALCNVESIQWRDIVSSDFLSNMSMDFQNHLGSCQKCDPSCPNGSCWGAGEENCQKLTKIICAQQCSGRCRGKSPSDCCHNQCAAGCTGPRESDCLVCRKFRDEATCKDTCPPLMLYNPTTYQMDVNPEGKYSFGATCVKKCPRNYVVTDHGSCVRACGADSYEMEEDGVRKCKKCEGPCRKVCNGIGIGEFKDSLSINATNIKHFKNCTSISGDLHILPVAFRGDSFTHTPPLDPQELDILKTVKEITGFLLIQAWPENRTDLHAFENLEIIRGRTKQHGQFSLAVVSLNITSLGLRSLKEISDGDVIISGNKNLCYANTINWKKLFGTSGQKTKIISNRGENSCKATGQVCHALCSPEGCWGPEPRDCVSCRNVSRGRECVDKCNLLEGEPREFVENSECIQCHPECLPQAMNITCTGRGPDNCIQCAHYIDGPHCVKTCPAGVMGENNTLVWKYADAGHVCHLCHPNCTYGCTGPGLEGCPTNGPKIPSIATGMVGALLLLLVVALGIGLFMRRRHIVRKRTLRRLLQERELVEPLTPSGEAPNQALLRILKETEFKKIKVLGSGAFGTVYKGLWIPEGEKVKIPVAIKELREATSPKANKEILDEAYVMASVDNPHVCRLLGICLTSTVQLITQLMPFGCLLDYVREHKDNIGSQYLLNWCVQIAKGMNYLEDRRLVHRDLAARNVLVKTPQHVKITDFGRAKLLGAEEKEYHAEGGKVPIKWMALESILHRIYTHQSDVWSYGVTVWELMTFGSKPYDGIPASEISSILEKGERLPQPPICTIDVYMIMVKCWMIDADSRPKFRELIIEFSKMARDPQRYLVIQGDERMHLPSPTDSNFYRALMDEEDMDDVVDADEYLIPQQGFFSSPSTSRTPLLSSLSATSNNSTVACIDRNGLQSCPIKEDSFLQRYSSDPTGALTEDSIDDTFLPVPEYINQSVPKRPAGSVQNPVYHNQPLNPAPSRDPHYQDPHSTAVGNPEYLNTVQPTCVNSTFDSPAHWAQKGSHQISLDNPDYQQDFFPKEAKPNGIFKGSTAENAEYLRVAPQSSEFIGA
T5 sequence (P00533 25-1210 T790M/L858R): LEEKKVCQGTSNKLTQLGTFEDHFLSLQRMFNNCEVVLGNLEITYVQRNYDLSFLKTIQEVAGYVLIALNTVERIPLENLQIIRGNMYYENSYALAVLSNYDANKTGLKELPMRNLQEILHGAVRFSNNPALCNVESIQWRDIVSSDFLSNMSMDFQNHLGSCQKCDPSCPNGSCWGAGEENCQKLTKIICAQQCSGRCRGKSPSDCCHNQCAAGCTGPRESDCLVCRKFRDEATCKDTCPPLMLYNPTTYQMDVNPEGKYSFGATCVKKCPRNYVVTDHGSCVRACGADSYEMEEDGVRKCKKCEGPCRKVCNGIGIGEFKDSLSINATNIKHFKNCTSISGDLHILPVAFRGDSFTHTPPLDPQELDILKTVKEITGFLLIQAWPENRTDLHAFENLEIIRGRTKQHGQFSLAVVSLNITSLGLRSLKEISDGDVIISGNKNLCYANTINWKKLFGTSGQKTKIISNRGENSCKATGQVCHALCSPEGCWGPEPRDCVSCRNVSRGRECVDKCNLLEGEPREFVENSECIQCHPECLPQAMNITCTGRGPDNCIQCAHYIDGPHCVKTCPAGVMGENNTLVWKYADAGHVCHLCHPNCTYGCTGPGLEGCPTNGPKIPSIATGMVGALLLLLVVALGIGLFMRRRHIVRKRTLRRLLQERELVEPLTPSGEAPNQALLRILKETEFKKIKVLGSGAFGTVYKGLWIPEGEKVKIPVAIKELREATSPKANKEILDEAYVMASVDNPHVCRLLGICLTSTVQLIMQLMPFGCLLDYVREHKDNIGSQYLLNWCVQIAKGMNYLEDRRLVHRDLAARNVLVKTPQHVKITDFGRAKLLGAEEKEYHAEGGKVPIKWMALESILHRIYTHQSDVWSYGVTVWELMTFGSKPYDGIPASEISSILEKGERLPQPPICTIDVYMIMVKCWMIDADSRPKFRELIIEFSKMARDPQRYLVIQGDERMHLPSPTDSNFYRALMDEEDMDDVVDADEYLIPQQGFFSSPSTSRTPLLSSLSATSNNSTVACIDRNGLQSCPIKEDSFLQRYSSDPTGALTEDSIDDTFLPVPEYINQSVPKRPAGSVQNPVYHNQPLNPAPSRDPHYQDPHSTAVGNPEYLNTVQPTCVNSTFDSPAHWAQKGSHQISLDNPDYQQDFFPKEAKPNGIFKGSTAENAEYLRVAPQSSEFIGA

Structure (SMILES) | pIC50 (EGFR L858R) | pIC50 [1] | pIC50 (EGFR[T790M/C797S/L858R]) | GI50 (A-431; A-431 cells) [nM] | pIC50 (EGFR Exon19Del/T790M) | GI50 [2, 3] [nM] | GI50 [2, 4] [nM] | GI50 [2, 5] [nM] | GI50 [2, 6] [nM] | GI50 [2, 7] [nM] | GI50 [2, 8] [nM] | GI50 [2, 9] [nM] | pIC50 (EGFR L858R/T790M) | pIC50 (EGFR wild type) | GI50 (PC-9) [nM] | pIC50 (EGFR (C797S L858R)) | pIC50 (EGFR (d746-750 C797S)) | pIC50 (EGFR Exon19Del) | GI50 (A-431; [10]) [nM]
Cc1cc2cc(n1)-c1cnn(C)c1OCCN1CC3CCC(C3)(C1)n1c(nc3ccc(N4CCC(N5CCOCC5)C4)cc31)NC2=O (single isomer, unassigned) [Example B44B2] | 6.57 | 8.15 | 8.26 | 3060 | 8.08 | 2 | 2 | 11 | 2 | 2 | 19 | 8 | 7.85 | 5.31 | 22 | 7.18 | 8.07 | 7.68 | –
Cc1cc2cc(n1)-c1cnn(C)c1OCCN1CC3CCC(C3)(C1)n1c(nc3ccc(N4CCC(N5CCOCC5)C4)cc31)NC2=O (single isomer, unassigned) [Example B44B] | 6.77 | 8.37 | 8.31 | – | 8.19 | 2 | 2 | 12 | 2 | 2 | 15 | 2 | 7.89 | < 5.30 | 13 | 7.30 | 8.09 | 7.74 | 929
Cc1cc2cc(n1)-c1cnn(C)c1OCCN1CC3CCC(C3)(C1)n1c(nc3ccc(N(C)CCCN(C)C)cc31)NC2=O (single isomer, unassigned) [Example B45B] | 7.34 | 8.77 | 8.85 | – | 8.55 | 2 | 2 | 4 | 2 | 2 | 11 | 2 | 8.42 | 5.99 | 10 | 7.85 | 8.62 | 8.28 | 1680
COCCN(C)c1ccc2nc3n(c2c1)C12CCC(CN(CCOc4c(cnn4C)-c4cc(cc(C)n4)C(=O)N3)C1)C2 (single isomer, unassigned) [Example B46A] | < 5.30 | < 5.30 | < 5.30 | 7830 | < 5.30 | 977 | 492 | 2500 | 198 | 919 | 7610 | 497 | < 5.30 | < 5.30 | 3050 | < 5.30 | < 5.30 | < 5.30 | –
COCCN(C)c1ccc2nc3n(c2c1)C12CCC(CN(CCOc4c(cnn4C)-c4cc(cc(C)n4)C(=O)N3)C1)C2 (single isomer, unassigned) [Example B46B] | 6.42 | 8.43 | 8.33 | 1360 | 8.14 | 2 | 2 | – | 2 | – | 36 | 2 | 7.92 | < 5.30 | 25 | 6.93 | 8.12 | 7.55 | –
Cc1cc2cc(n1)-c1cnn(C)c1OCCN1CC3CCC(C3)(C1)n1c(nc3ccc(N(C)CCN(C)C)cc31)NC2=O (single isomer, unassigned) [Example B47B] | 7.23 | 8.72 | 8.82 | – | 8.55 | 2 | 2 | 9 | 2 | 2 | 11 | 2 | 8.46 | 6.09 | 12 | 7.85 | 8.55 | 8.24 | 378
Cc1cc2cc(n1)-c1cnn(C)c1OCCN1CC3CCC(C3)(C1)n1c(nc3ccc(N4CC(N5CCOCC5)C4)cc31)NC2=O (single isomer, unassigned) [Example B48A] | < 5.30 | < 5.30 | < 5.30 | 7000 | < 5.30 | 114 | 172 | 426 | 34 | 168 | 846 | 140 | < 5.30 | < 5.30 | 973 | 5.53 | 5.99 | 5.65 | –
Cc1cc2cc(n1)-c1cnn(C)c1OCCN1CC3CCC(C3)(C1)n1c(nc3ccc(N4CC(N5CCOCC5)C4)cc31)NC2=O (single isomer, unassigned) [Example B48B] | 6.85 | 8.47 | 8.52 | 1370 | 8.16 | 2 | 2 | 6 | 2 | 2 | 13 | 2 | 8.17 | 5.53 | 12 | 7.36 | 8.35 | 7.89 | –

— patent publication US20260365670A1, “EGFR INHIBITORS AND USES THEREOF” (DIZAL (JIANGSU) PHARMACEUTICAL CO., LTD., priority 2022, published 2026)
